{
  "source": "patent US5565561A",
  "about": "“Natural substance cyclamenol and chemical derivatives” (Bayer Aktiengesellschaft, priority 1992, dated 1996)",
  "key": {"[1]": {"molecular_target": "T1, Myeloperoxidase from human polymorphonuclear neutrophils (Homo sapiens, UniProt P05164)", "T1 construct": "The latter were isolated from fresh venous whole blood; endogenous in cells; host or cells: human polymorphonuclear neutrophils isolated from fresh venous whole blood; lysed with cetyltrimethylammonium bromide, 40,000 g supernatant", "T1 sequence (P05164 279-745 limits assumed)": "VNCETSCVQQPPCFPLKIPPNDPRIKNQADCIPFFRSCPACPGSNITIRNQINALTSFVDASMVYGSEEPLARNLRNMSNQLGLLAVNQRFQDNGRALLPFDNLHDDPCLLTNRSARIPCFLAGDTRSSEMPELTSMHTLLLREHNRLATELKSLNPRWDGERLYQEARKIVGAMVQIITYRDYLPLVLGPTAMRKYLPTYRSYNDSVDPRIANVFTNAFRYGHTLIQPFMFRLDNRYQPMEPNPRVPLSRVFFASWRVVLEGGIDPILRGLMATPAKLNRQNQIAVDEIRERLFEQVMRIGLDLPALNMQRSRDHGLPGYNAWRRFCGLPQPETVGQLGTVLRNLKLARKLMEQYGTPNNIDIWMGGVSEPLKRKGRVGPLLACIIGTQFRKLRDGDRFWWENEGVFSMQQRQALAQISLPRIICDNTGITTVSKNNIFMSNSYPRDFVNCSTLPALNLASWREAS", "T1 sequence (P05164 165-278 limits assumed)": "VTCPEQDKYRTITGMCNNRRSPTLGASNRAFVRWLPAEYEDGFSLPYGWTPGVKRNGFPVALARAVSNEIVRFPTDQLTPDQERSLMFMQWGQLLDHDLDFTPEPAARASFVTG", "test": "Inhibition of myeloperoxidase activity (ortho-dianisidine/H2O2, absorbance at 490 nm)", "format": "biochemical", "details": "pH 6.0, 30° C.", "method": "Myeloperoxidase from human polymorphonuclear neutrophils was used for the measurements. The latter were isolated from fresh venous whole blood according to the method of D. English and B. R. Andersen, Journal of Immunological Methods 5, (1974) 249-252.\n10^7 cells were lysed at 0° C. for 10 min using 1 ml of 0.5% cetyltrimethylammonium bromide in 50 mmol/l sodium phosphate buffer pH 6.0, frozen and directly thawed again. This process was repeated twice. The suspension was then centrifuged at 40,000 g for 10 min. The supernatant was diluted with 50 mmol/l sodium phosphate buffer pH 6.0 according to its myeloperoxidase activity and used for the tests.\nTo carry out the tests, 10 μl of test sample are added to a dimethyl sulphoxide-containing solution (max. v/v 30%) with 30 μl of the myeloperoxidase solution prepared as described above=1-2.5 μg of protein, in a microtitre plate (Greiner) with a smooth bottom. The reaction is started by addition of a test mixture consisting of 250 μl of 50 mmol/l sodium phosphate buffer pH 6.0, 10 μl of 0.5×10^-3 mmol/l H2 O2 and 10 μl of 2.5×10^-2 mol/l ortho-dianisidine in dimethyl sulphoxide. The increase in the absorbance is measured at 490 nm in an Elisa reader at 30° C. 6 measurements are carried out at an interval of 2 min and the increase in absorbance per minute is calculated. A control which instead of a test sample contains only the corresponding amount of dimethyl sulphoxide is prepared as the 100% value and then the inhibition by the sample is calculated. All measurements are carried out as a triplicate determination."}, "[2]": {"test_system": "Leucocyte adhesion in small venules", "test": "Leucocyte adhesion in small venules of the hamster cheek pouch", "format": "in vivo", "details": "Mesocricetus auratus, iv, adhesion caused by the preparation, read-out: dose from which leucocyte adhesion is significantly reduced", "source_text": "(§1) 3. Leucocyte adhesion in small venules was investigated in the hamster cheek pouch (preparation according to Duling, MVR 5, 423-429, 1973). An increased adhesion is caused by the preparatory preparation of the cheek pouch. […] The determination of the myeloperoxidase activity as a direct measure of the accumulation of neutrophilic leucocytes gives increases of around 80-100% compared to the control."}, "[3]": {"test_system": "myeloperoxidase activity (accumulation of neutrophilic leucocytes)", "test": "LTB4-superfused hamster cheek pouch, myeloperoxidase activity as measure of accumulation of neutrophilic leucocytes", "format": "in vivo", "details": "1 mg/kg i.v.; cheek pouch superfused with LTB4 for 10 min", "source_text": "as §1"}, "infarcted cardiac tissue": {"test_system": "infarcted cardiac tissue", "test": "Reduction of the infarct size in the rat infarct model", "format": "in vivo, Wistar rats", "details": "1 mg/kg each before occlusion and before reperfusion, jugular vein infusion; average and standard deviation, 11 rats", "method": "After a 5-minute post-operative recovery phase, the compound from Example 1 in a dose of 1 mg/kg dissolved in 100% DMSO or solvents was infused for 6 min into the catheterized jugular vein of the ventilated rats and the coronary artery was occluded for 30 min. At the 25 minute point of the occlusion, the second administration of the compound from Example 1 or solvent is carried out under the conditions described above. After the end of the infusion and occulsion phase, the ligature was opened and the heart was reperfused for 90 min.\nFor histological staining of the infarcted cardiac tissue, the heart was perfused ex vivo retrogressively with triphenyltetrazolium chloride (TTC, 1.5%) in 20 mM potassium phosphate buffer for 15 min and with 0.9% NaCl for 10 min at 37° C. and at a perfusion pressure of 100 mm Hg. The infarct sizes were calculated in percent by weight of infarcted to non-infarcted tissue and indicated in percent as average values and their standard deviations of 11 rats treated with the compound from Example 1 and of 11 treated with solvent."}},
  "data": [
    {"smiles": "CC1C=CC=CC=CC=CC(O)CC=CC=CC=CC(=O)NC1", "note": "(centres unmarked) [Example 1, Cyclamenol]", "values": [
      {"measurement": "inhibition at 0.1 µM", "setting": "[1]; 0.1 μmol/l", "result": 12, "unit": "%"},
      {"measurement": "inhibition at 1 µM", "setting": "[1]; 1 μmol/l", "result": 28, "unit": "%"},
      {"measurement": "inhibition at 10 µM", "setting": "[1]; 10 μmol/l", "result": 45, "unit": "%"},
      {"measurement": "inhibition at 50 µM", "setting": "[1]; 50 μmol/l", "result": 60, "unit": "%"},
      {"measurement": "minimal effective dose", "setting": "[2]", "result": "≥ 0.1", "unit": "mg/kg"},
      {"measurement": "effect on the rise in MPO activity", "setting": "[3]", "result": "prevents the rise in the MPO activity"},
      {"measurement": "reduction of infarct size", "setting": "infarcted cardiac tissue", "result": "12.2±4.8", "unit": "%"},
      {"measurement": "reduction of infarct size (first value)", "setting": "infarcted cardiac tissue", "result": "19.0±6.0", "unit": "%"}
    ]}
  ]
}
